Data as given in patent publication US7998681B2, “Diagnosis and therapy of antibody-mediated inflammatory auto-immune disorders” (Los Angeles Biomedical Research Institute at Harbor-UCLA …, priority 2000, dated 2011).

Experiments:
Format in all cases: cell-based, human
RANTES = RANTES ELISA of medium from treated fibroblasts, GD donors; settings: GD, limit of detection 15 pg/ml
Excerpt: (§1) In addition to its therapeutic aspects, the present invention also relates to a diagnostic method for detecting the presence of antibody-activated fibroblasts in the patient. Applicants believe that several auto immune diseases or disorders are associated with antibody-activated fibroblasts. […] Altered levels of these chemoattractants can be detected in various biological samples in mammals, preferably humans. Levels of IL-16 and/or RANTES may be monitored in a patient, using standard techniques, as an indication of the deleterious aspects of the disease condition. Biological samples, including but not limited to serum, vitreous humor, aqueous humor, synovial fluid, and tissue, will be drawn from the patient using standard techniques. Particularly preferred are serum samples. The measurement of the IL-16 and RANTES levels may be monitored using any method possible to detect the levels of these proteins in biological samples. A preferred method of analysis is by ELISA as described in Sciaky, D. et al., J. Immunol. 164(7):3806-14, 2000. An ELISA specific for IL-16 can be used to assess the levels released by fibroblasts as described previously in Lim, K. G. et al., J. Immunol. 156(7): 2566-70, 1996. An ELISA specific for RANTES can be used according to the manufacturer's specification (BioSource Intl., Camarillo, Calif.).
(§2) The levels of IL-16 and RANTES were then assessed with specific ELISAs. The ELISA assay for IL-16 is performed essentially as discussed in Sciaky D., Brazer, W., Center, D. M., Cruikshank, W. W. and Smith, T. J.: Cultured human fibroblasts express constitutive IL-16 mRNA: Cytokine induction of active IL-16 protein synthesis through a caspase-3-dependent mechanism. J. Immunol. 164(7):3806-14, 2000). An ELISA (BioSource) for RANTES was performed according to the manufacturer's instructions.

IL-16 = IL-16 ELISA of medium from treated fibroblasts, GD donors; settings: GD, limit of detection 20 pg/ml
Excerpt: as §1, §2

[1] = test system: fibroblasts from individuals without known thyroid disease; test: T lymphocyte migration (chemotaxis) assay of conditioned medium from treated fibroblasts, normal donors; settings: IgG 100 ng/ml, IL-1β 10 ng/ml, 24 hours
Protocol: The general migration assay is described in detail in Sciaky, D., et al., “Cultured human fibroblasts express constitutive IL-16 mRNA: Cytokine induction of active IL-16 protein synthesis through a caspase-3-dependent mechanism,” J. Immunol. 164(7):3806-14 (2000), hereby incorporated fully by reference. Briefly, fibroblasts from TAO and normal orbital tissue were seeded in 24-well arrays and grown to confluence. Monolayers were shifted containing 1% FBS to which nothing, purified normal or TAO IgG was added for various time intervals. Medium was collected and stored until use at −80° C. Chemotaxis was examined using Boyden chambers to which NWNA-T lymphocytes were added as the cellular targets. 50 μl cell suspension (10^7 cells/ml) were placed in the upper compartments of 48-well micro-chemotaxis chambers separated from 32 μl of serum samples by 8 μm micropore nitrocellulose filters (Neuroprobe). These were incubated at 37° C. in 5% CO2 environment for 3 hr. Filters were fixed, stained with hematoxylin, dehydrated, mounted on glass slides and viewed by light microscopy. Lymphocyte migration was quantified by counting the total number of cells migrating beyond a fixed depth. This depth was set to routinely identify a baseline migration under control conditions of 10-15 cells per high power field. Five such fields were counted in duplicate for each sample and the means±SD were calculated and expressed as percentage values of baseline cell migration in control buffer alone (100%). For each set of experimental conditions, at least three separate determinations were performed. Differences between experimental groups were analyzed by the Student t test using absolute values obtained for lymphocyte migration and statistical difference was accepted at the 95% level of confidence.
To assess specificity for IL-16, experiments were conducted by incubating samples of culture media for 15 min with neutralizing concentrations of anti-IL-16 MAB (clone 14. 1, 10 μg/ml), which blocks the chemotactic activity of 50 ng/ml of rIL-16. Anti-RANTES MAB (5 μg/ml) having an ND50 of 200 ng/ml rRANTES was used to neutralize RANTES as described in Sciaky D., Brazer, W., Center, D. M., Cruikshank, W. W. and Smith, T. J.: Cultured human fibroblasts express constitutive IL-16 mRNA: Cytokine induction of active IL-16 protein synthesis through a caspase-3-dependent mechanism. J. Immunol. 164(7):3806-14, 2000).
Referring to FIGS. 3A-3C, serum concentrations of IL-16 are elevated in patients with active TAO. Moreover, both IL-16 and PGHS-2 protein can be detected in TAO orbital tissue. The concentration of IL-16 is determined in sera from either patients with Graves' disease or normal controls. The sera are subjected to an ELISA assay, which utilizes an anti-IL-16 specific antibody. IL-16 is detected by standard immunohistochemical techniques in thin sections harvested from affected orbital connective tissues from a patient with severe Graves' ophthalmopathy. In a separate measurement of IL-16 dependent T-cell migration, a panel of 11 different fibroblast strains from patients with Graves' disease and 5 from individuals without known thyroid disease were challenged with Graves' IgG (100 ng/ml), normal IgG (100 ng/ml) or IL-1β (10 ng/ml) for 24 hours and assessed for T cell migration activity and IL-16 production (Table II). Graves' IgG induced IL-16 dependent cell migration in 10 of the Graves' fibroblast strains which derived from orbit and skin from various anatomic regions. Included were strains from the pretibial skin as well as the abdominal wall and the neck. The latter two sites rarely manifest Graves' disease. A substantial fraction of Graves' IgG provoked T cell migration activity in most of these strains was resistant to neutralization with anti-IL-16. Similarly, chemoattractants produced by RA fibroblasts can be measured by T-cell migration. […]

Substance: IL-1β: pro-inflammatory cytokine used to activate fibroblasts
- RANTES (RANTES; strain 1, Orbit): 84 ± 8 pg/mL
- RANTES (RANTES; strain 2, Orbit): 116 ± 11 pg/mL
- RANTES (RANTES; strain 3, Abdominal skin): 116 ± 11 pg/mL
- RANTES (RANTES; strain 4, Orbit): 128 ± 26 pg/mL
- RANTES (RANTES; strain 6, Neck skin): 253 ± 42 pg/mL
- RANTES (RANTES; strain 7, Pretibial skin): 128 ± 26 pg/mL
- RANTES (RANTES; strain 9, Orbit): 78 ± 21 pg/mL
- RANTES (RANTES; strain 10, Orbit): 214 ± 30 pg/mL
- RANTES (RANTES; strain 11, Orbit): 69 ± 6 pg/mL
- IL-16 (IL-16; strain 1, Orbit): 71 ± 9 pg/mL
- IL-16 (IL-16; strain 2, Orbit): 82 ± 9 pg/mL
- IL-16 (IL-16; strain 3, Abdominal skin): 82 ± 9 pg/mL
- IL-16 (IL-16; strain 4, Orbit): 194 ± 29 pg/mL
- IL-16 (IL-16; strain 6, Neck skin): 116 ± 27 pg/mL
- IL-16 (IL-16; strain 7, Pretibial skin): 194 ± 29 pg/mL
- IL-16 (IL-16; strain 8, Pretibial skin): 79 ± 11 pg/mL
- IL-16 (IL-16; strain 9, Orbit): 218 ± 33 pg/mL
- IL-16 (IL-16; strain 10, Orbit): 246 ± 32 pg/mL
- IL-16 (IL-16; strain 11, Orbit): 94 ± 12 pg/mL
- T Cell Migration (% control) ([1]; strain 12, Orbit): 168 +/− 11 % control
- T Cell Migration +anti-IL-16 ([1]; strain 12, Orbit): 143 +/− 9 % control
- T Cell Migration +anti-RANTES ([1]; strain 12, Orbit): 156 +/− 9 % control
- T Cell Migration (% control) ([1]; strain 14, Orbit): 189 +/− 10 % control
- T Cell Migration +anti-IL-16 ([1]; strain 14, Orbit): 154 +/− 8 % control
- T Cell Migration +anti-RANTES ([1]; strain 14, Orbit): 159 +/− 9 % control
- T Cell Migration (% control) ([1]; strain 15, Extremity Skin): 197 ± 10 % control
- T Cell Migration +anti-IL-16 ([1]; strain 15, Extremity Skin): 153 ± 9 % control
- T Cell Migration +anti-RANTES ([1]; strain 15, Extremity Skin): 172 ± 9 % control
- T Cell Migration (% control) ([1]; strain 16, Extremity Skin): 201 ± 7 % control
- T Cell Migration +anti-IL-16 ([1]; strain 16, Extremity Skin): 155 ± 8 % control
- T Cell Migration +anti-RANTES ([1]; strain 16, Extremity Skin): 173 ± 7 % control
